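Briefly, cells in 96-well plates were exposed to five compound concentrations for 48 h, and endpoints were estimated by linear interpolation. Here, GI50 denotes the concentration required for 50% inhibition of growth.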 Activity calls are given as the source filed them. No stated cut-off is given here; in the data, active = GI50 up to about 1.1 µM and inactive = higher.

Test systems include BT-549; OVCAR-4; MDA-N; NCI-H226; OVCAR-5; SNB-75; T47D; CCRF-CEM; MOLT-4; SN12C; TK-10; MDA-MB-435; NCI/ADR-RES; NCI-H23; SF-539; A498; NCI-H522; M14; HCT-15; 786-0.
Common to all, as to experiment: inhibition of tumour cell growth, NCI panel, 48 h

Turning to `COc1cc(/C=C/C(=O)Oc2ccccc2)ccc1C(=O)O/C=C/c1ccccc1`, the GI50 with BT-549, in the assay on OVCAR-4, with MDA-N, with NCI-H226, in the assay on OVCAR-5 and with SNB-75 was > 100 µM (inactive) throughout. Moreover, the GI50 in the assay on T47D is > 100 µM (inactive); in the assay on CCRF-CEM it was 17.7 µM (inactive); with MOLT-4, > 93.3 µM (inactive); in the assay with SN12C, > 100 µM (inactive); in the assay with TK-10 it was > 100 µM (inactive); in the assay on MDA-MB-435 it was > 100 µM (inactive). The GI50 was > 100 µM (inactive) in the assay on NCI/ADR-RES; > 100 µM (inactive) with NCI-H23; > 100 µM (inactive) in the assay on SF-539; > 21.5 µM (inactive) with A498; > 100 µM (inactive) in the assay on NCI-H522; > 100 µM (inactive) with M14. The figures for the GI50 with HCT-15 and in the assay with 786-0 were more than 100 µM and > 100 µM (inactive), respectively.

For the origin of these results see ChEMBL document CHEMBL1201862, “PubChem BioAssay data set” (2004).
